# Test system: PC-3 cells
# Experiment: Flow cytometric analysis of hypoxic cell induction
# Type: cell-based, human
# Conditions: for Mean fluorescence (FITC antibody against pimonidazole adducts): 10 μM pimonidazole, 2 h
structure (smiles),measurement,setting,value
O=[N+]([O-])c1nccn1CC(O)CN1CCCCC1 (stereo not drawn) [pimonidazole],"Increase in pimonidazole binding, hypoxic compared to normoxic","PC-3 cells, flow cytometry",fivefold increase
same,Mean fluorescence (FITC antibody against pimonidazole adducts),"hypoxic PC-3 cells (94.9% N2, 0.1% O2, 5% CO2)",286
same,Mean fluorescence (FITC antibody against pimonidazole adducts),"normoxic PC-3 cells (95% air, 5% CO2)",56.8
